Assay results as given in patent US10793557B2, “Sting agonist compounds” (Merck Sharp & Dohme Corp., priority 2018, dated 2020).

Legend:
[1] = tested on: secretion of interferon-beta from THP1 cells; test: IFN-β secretion in THP1 cell culture (5 h); format: cell-based; conditions: Homo sapiens, THP-1, 5 h, 30 uM cGAMP = 100%; for activation at 30 µM: compound at 30 μM, read-out: % Effect at 30 μM relative to 2′3′-cGAMP; for activation at 3 µM: compound at 3 uM, read-out: % Effect relative to 2′3′-cGAMP (@ 3 uM)
Method in brief: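 IFN-β in supernatant measured by AlphaLISA after a 5 h, 37 °C incubation of THP1 cells with compound (10 concentrations, 30000 down to 1.5 nM, 0.3% DMSO) in low-serum RPMI. Values scaled between DMSO and 30 uM cGAMP controls; 4-parameter curve fit yields EC50.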

full-length HAQ STING = target: T1, full-length HAQ STING (Homo sapiens, UniProt Q86WV6, G230A/H232R/R293Q/R71H); test: 3H-cGAMP filtration binding assay (HAQ STING); conditions: competition with tritiated cGAMP, HAQ STING membrane
T1 construct: AviTag (after GG linker) (C); HRV3C cleavage site (after GS linker) (C); HIS8 (C); made in house; host or cells: Trichoplusia ni (Hi-Five) insect cells infected with baculovirus (virus generated and amplified in Sf21 cells); used as a washed membrane preparation
Method in brief: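 Hi-Five (T. ni) membranes overexpressing the STING variant (2.2 ug/ml working) preincubated with compound 60 min at RT in PBS, then [3H]cGAMP (8 nM working stock) added for 60 min at RT. Bound radioactivity captured on GF/B filters and counted by scintillation; EC50 from 4-parameter fit of control-normalized activity.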

full-length WT STING = target: T2, full-length WT STING (Homo sapiens, UniProt Q86WV6, H232R); test: 3H-cGAMP filtration binding assay (WT STING); conditions: for EC50: competition with tritiated cGAMP, WT STING membrane; for inhibition at 20 µM: at 20,000 nM compound
T2 construct: AviTag (after gg linker) (C); HRV3C cleavage site (after gs linker) (C); HIS8 (C); made in house; host or cells: Trichoplusia ni (Hi-Five) insect cells infected with baculovirus (virus generated and amplified in Sf21 cells); used as a washed membrane preparation
Method in brief: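 EC50 values come from 4-parameter fits of remaining filter-bound tritium versus log concentration (10-point, 1:3 dilution). Insect-cell membranes carrying full-length WT STING were incubated 60 min at RT with compound and tritiated cGAMP (16 nM working stock) before filtration.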

T2 sequence (Q86WV6 with tags, fused parts or gaps H232R): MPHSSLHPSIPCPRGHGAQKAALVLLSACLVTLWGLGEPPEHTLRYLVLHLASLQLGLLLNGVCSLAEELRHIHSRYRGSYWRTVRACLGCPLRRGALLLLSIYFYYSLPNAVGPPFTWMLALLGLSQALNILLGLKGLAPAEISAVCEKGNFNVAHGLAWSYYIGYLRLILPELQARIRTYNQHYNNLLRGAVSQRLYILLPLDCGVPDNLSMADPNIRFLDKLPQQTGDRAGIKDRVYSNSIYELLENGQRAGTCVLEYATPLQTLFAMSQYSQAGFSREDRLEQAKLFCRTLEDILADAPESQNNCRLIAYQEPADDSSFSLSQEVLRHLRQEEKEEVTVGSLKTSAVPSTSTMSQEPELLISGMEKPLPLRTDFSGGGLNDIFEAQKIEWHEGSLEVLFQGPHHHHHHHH
T1 sequence (Q86WV6 with tags, fused parts or gaps R71H/G230A/H232R/R293Q): as the sequence (Q86WV6 with tags, fused parts or gaps H232R) above, with R71H, G230A, R293Q counted along it

SMILES	activation at 30 µM [1]	EC50 (full-length HAQ STING)	EC50 (full-length WT STING)	activation at 3 µM [1]	inhibition at 20 µM (full-length WT STING)
COc1cc2sc(C(=O)C[C@H](C)C(=O)O)cc2c(F)c1OCCCOc1cc2sc(C(=O)[C@@H]3CC[C@H]3C(=O)O)cc2c(F)c1OC (single isomer, unassigned) [Example 96]	43%	18 nM	628 nM	–	–
COc1cc2sc(C(=O)C[C@H](C)C(=O)O)cc2c(F)c1OCC(C)(C)COc1c(OC)cc2sc(C(=O)C[C@H](C)C(=O)O)cc2c1F [Example 143, (2S,2′S)-4,4′-(((2,2-dimethylpropane-1,3-diyl)bis(oxy))bis(4-fluoro-6-methoxybenzo[b]thiophene-5,2-diyl))bis(2-methyl-4-oxobutanoic acid)]	–	75 nM	1450 nM	26%	–
COc1cc2sc(C(=O)C[C@H](C)C(=O)O)cc2cc1OCCOc1cc2cc(C(=O)C[C@H](C)C(=O)O)sc2cc1OC [Example 76, (2S,2′S)-4,4′-((ethane-1,2-diylbis(oxy))bis(6-methoxybenzo[b]thiophene-5,2-diyl))bis(2-methyl-4-oxobutanoic acid)]	44%	22 nM	56 nM	–	–
COc1cc2cc(C(=O)C[C@H](C)C(=O)O)sc2cc1OCCCCCCOc1cc2sc(C(=O)C[C@H](C)C(=O)O)cc2cc1OC [Example 112, (2S,2′S)-4,4′-(6,6′-(hexane-1,6-diylbis(oxy))bis(5-methoxybenzo[b]thiophene-6,2-diyl))bis(2-methyl-4-oxobutanoic acid)]	23%	15500 nM	–	–	11%
COc1cc2sc(C(=O)C[C@H](C)C(=O)O)cc2cc1OCCCc1c(OC)cc2sc(C(=O)C[C@H](C)C(=O)O)cc2c1F [Example 162, (S)-4-(5-(3-(2-((S)-3-carboxybutanoyl)-4-fluoro-6-methoxybenzo[b]thiophen-5-yl)propoxy)-6-methoxybenzo[b]thiophen-2-yl)-2-methyl-4-oxobutanoic acid]	98%	1 nM	4 nM	–	–
COc1cc2sc(C(=O)CCC(=O)O)cc2nc1OCCCOc1c(OC)cc2sc(C(=O)C[C@H](C)C(=O)O)cc2c1F [Example 23, (S)-4-(5-(3-((2-(3-carboxypropanoyl)-6-methoxythieno [3,2-b]pyridin-5-yl)oxy)propoxy)-4-fluoro-6-methoxybenzo[b]thiophen-2-yl)-2-methyl-4-oxobutanoic acid]	83%	1 nM	2 nM	–	–
COc1cc2sc(C(=O)C[C@H](C)C(=O)O)cc2c(F)c1CCCOc1c(OC)cc2sc(CCC(C)(C)C(=O)O)cc2c1F [Example 114, (S)-4-(5-(3-((2-(3-carboxy-3-methylbutyl)-4-fluoro-6-methoxybenzo[b]thiophen-5-yl)oxy)propyl)-4-fluoro-6-methoxybenzo[b]thiophen-2-yl)-2-methyl-4-oxobutanoic acid]	57%	21 nM	264 nM	–	–
COc1cc2sc(C(=O)C[C@H](C)C(=O)O)cc2c(F)c1OCCCCOc1c(OC)cc2sc(C(=O)C[C@H](C)C(=O)O)cc2c1Br [Example 131, (S)-4-(5-(4-((4-bromo-2-((S)-3-carboxybutanoyl)-6-methoxybenzo[b]thiophen-5-yl)oxy)butoxy)-4-fluoro-6-methoxybenzo[b]thiophen-2-yl)-2-methyl-4-oxobutanoic acid]	–	25 nM	242 nM	38%	–
COc1cc2sc(C(=O)C[C@H](C)C(=O)O)cc2c(F)c1OCCCC(C)Oc1c(OC)cc2sc(C(=O)C[C@H](C)C(=O)O)cc2c1F (stereo partly drawn) [Example 139, (2S,2′S)-4,4′-((pentane-1,4-diylbis(oxy))bis(4-fluoro-6-methoxybenzo[b]thiophene-5,2-diyl))bis(2-methyl-4-oxobutanoic acid)]	57%	3 nM	12 nM	–	–
COc1cc2sc(C(=O)CCC(=O)O)cc2cc1OCCOc1c(OC)cc2sc(C(=O)CCC(=O)O)cc2c1F [Example 36, 4-(5-(2-((2-(3-carboxypropanoyl)-4-fluoro-6-methoxybenzo[b]thiophen-5-yl)oxy)ethoxy)-6-methoxybenzo[b]thiophen-2-yl)-4-oxobutanoic acid]	102%	4 nM	10 nM	–	–
C[C@@H](CC(=O)c1cc2cc(OCCCOc3cc4cc(C(=O)C[C@H](C)C(=O)O)sc4cc3OC(F)F)c(OC(F)F)cc2s1)C(=O)O [Example 79, (2S,2′S)-4,4′-(1,3-propanediylbis{oxy[6-(difluoromethoxy)-1-benzothiene-5,2-diyl]})bis(2-methyl-4-oxobutanoic acid)]	49%	5 nM	12 nM	–	–
COc1cc2sc(C(=O)C[C@H](C)C(=O)O)cc2cc1OCCCOc1c(OC)cc2sc(C(=O)C[C@H](C)C(=O)NS(=O)(=O)N(C)C)cc2c1F [Example 178, (S)-4-(5-(3-((2-((S)-4-((N,N-Dimethylsulfamoyl)amino)-3-methyl-4-oxobutanoyl)-4-fluoro-6-methoxybenzo[b]thiophen-5-yl)oxy)propoxy)-6-methoxybenzo[b]thiophen-2-yl)-2-methyl-4-oxobutanoic acid]	107%	4 nM	31 nM	–	–
COc1cc2sc(C(=O)C[C@H](C)C(=O)O)cc2nc1OCCCOc1c(OC)cc2sc(C(=O)C[C@H](C)C(=O)O)cc2c1F (racemic) [Example 22, rac-(R)-4-(5-(3-((2-((R)-3-carboxybutanoyl)-4-fluoro-6-methoxybenzo[b]thiophen-5-yl)oxy)propoxy)-6-methoxythieno[3,2-b]pyridin-2-yl)-2-methyl-4-oxobutanoic acid]	48%	1 nM	1 nM	–	–
COc1cc2sc(C(=O)C[C@H](C)C(=O)O)cc2c(Cl)c1OCCCOc1cc2cc(C(=O)C[C@H](C)C(=O)O)sc2cc1O [Example 182, (S)-4-(5-(3-((2-((S)-3-carboxybutanoyl)-4-chloro-6-methoxybenzo[b]thiophen-5-yl)oxy)propoxy)-6-hydroxybenzo[b]thiophen-2-yl)-2-methyl-4-oxobutanoic acid]	–	1 nM	2 nM	147%	–
COc1cc2sc(C(=O)C[C@H](C)C(=O)O)cc2nc1OCCOc1c(OC)cc2sc(C(=O)C[C@H](C)C(=O)O)cc2c1F (racemic) [Example 19, rac-(R)-4-(5-(2-((2-((R)-3-carboxybutanoyl)-4-fluoro-6-methoxybenzo[b]thiophen-5-yl)oxy)ethoxy)-6-methoxythieno[3,2-b]pyridin-2-yl)-2-methyl-4-oxobutanoic acid]	30%	2 nM	9 nM	–	–
COc1cc2sc(C(=O)CCC#N)cc2cc1CCCc1cc2cc(C(=O)CCC#N)sc2cc1OC [Example 175, 4,4′-(Propane-1,3-diylbis(6-methoxybenzo[b]thiophene-5,2-diyl))bis(4-oxobutanenitrile)]	13%	4020 nM	–	–	46%
COc1cc2sc(C(=O)CCC(=O)O)nc2cc1CCCc1cc2nc(C(=O)CCC(=O)O)sc2cc1OC [Example 27, 4,4′-(propane-1,3-diylbis(6-methoxybenzo[d]thiazole-5,2-diyl))bis(4-oxobutanoic acid)]	113%	89 nM	362 nM	–	–
COc1cc2sc(CC[C@H](C)C(=O)O)cc2c(F)c1OCCCOc1cc2cc(C(=O)C[C@H](C)C(=O)O)sc2cc1O [Example 181, (S)-4-(5-(3-((2-((S)-3-carboxybutyl)-4-fluoro-6-methoxybenzo[b]thiophen-5-yl)oxy)propoxy)-6-hydroxybenzo[b]thiophen-2-yl)-2-methyl-4-oxobutanoic acid]	–	5 nM	177 nM	104%	–
COc1cc2sc(C(=O)C[C@H](C)C(=O)O)cc2cc1CCCOc1c(OC)cc2sc(C(=O)[C@@H]3C[C@H]3C(=O)O)cc2c1F [Example 84, trans-2-(5-(3-(2-((S)-3-carboxybutanoyl)-6-methoxybenzo[b]thiophen-5-yl)propoxy)-4-fluoro-6-methoxybenzo[b]thiophene-2-carbonyl)-cyclopropanecarboxylic acid]	148%	50 nM	1060 nM	–	–
COc1cc2sc(C(=O)CCC(=O)O)cc2nc1OCCCOc1c(OC)cc2sc(C(=O)CCC(=O)O)cc2c1F [Example 82, 4-(5-(3-((2-(3-carboxypropanoyl)-4-fluoro-6-methoxybenzo[b]thiophen-5-yl)oxy)propoxy)-6-methoxythieno[3,2-b]pyridin-2-yl)-4-oxobutanoic acid]	158%	1 nM	2 nM	–	–
